Data on 2 compounds can be found in paper PMC11379592 (BBA Advances, 2024).

Data set [1] can be described thus: plasma stability assay, human plasma. The format is in vitro ADME. As to conditions: pH 7.4.
Data set [2] is described as follows: plasma stability assay, rat plasma. Format: in vitro ADME. As to conditions: 37 °C, pH 7.4, 0-120 min.
The target in data set [3] is T1, mouse sEH (Mus musculus, UniProt P34914).
T1 sequence (P34914 1-554): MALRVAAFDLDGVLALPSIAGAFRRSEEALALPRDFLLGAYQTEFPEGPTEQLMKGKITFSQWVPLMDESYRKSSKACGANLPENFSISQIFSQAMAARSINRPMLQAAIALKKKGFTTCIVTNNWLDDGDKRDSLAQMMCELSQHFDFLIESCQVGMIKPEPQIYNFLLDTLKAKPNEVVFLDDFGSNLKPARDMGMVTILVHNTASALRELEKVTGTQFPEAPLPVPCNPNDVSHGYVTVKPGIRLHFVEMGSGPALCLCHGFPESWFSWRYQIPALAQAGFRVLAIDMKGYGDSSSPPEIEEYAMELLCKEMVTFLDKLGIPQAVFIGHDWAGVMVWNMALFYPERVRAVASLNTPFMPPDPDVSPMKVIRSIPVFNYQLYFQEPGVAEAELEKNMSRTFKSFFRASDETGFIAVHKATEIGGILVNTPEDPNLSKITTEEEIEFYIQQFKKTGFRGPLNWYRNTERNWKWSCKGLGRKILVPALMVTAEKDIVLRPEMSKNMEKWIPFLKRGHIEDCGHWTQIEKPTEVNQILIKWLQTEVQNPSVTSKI
Briefly: mouse sEH inhibition assay. Format: biochemical.

Data set [4] deals with formalin-induced orofacial pain in female rats. The conditions noted are these: doses ranging from 0.5 to 5 mg/kg; cited from earlier work.

On to `Cc1ccc(-c2csc(-c3ccc(NC(=O)C4CCN(S(=O)(=O)c5ccccc5Cl)CC4)cc3)n2)cc1` [SW-17, 1-((2-chlorophenyl)sulfonyl)-N-(4-(4-(p-tolyl)thiazol-2-yl)phenyl)piperidine-4-carboxamide], for which the half-life at 5 μM is 410 min in data set [1] and about 30 min in data set [2] (rat, plasma, pH 7.4, Half-life). In addition, the Half-life in data set [2] (5 μM) is 31.1 min. Also, in data set [3], the “activity in mouse sEH inhibition assay (in words)” value was “weak inhibitor”.
As for `CNS(=O)(=O)Cc1ccc2[nH]cc(CCN(C)C)c2c1` [sumatriptan], in data set [4], the “effect on formalin-induced orofacial pain” value was “inhibit formalin-induced orofacial pain”.
